Measurements: patent US7432225B2, “Selective herbicides based on substituted cyclic keto-enols and safeners” (Bayer CropScience AG, priority 2001, dated 2008)

Tests used:
Winter barley = test: Post-emergence test, degree of damage to crop plants; assay type: in vivo; settings: rated about three weeks after application
Protocol: (§1) The active compound or safener components are in each case dissolved in a few ml (generally 2-3 ml) of solvent (generally acetone or N,N-dimethyl-formamide), and the solutions are combined and then—if appropriate after addition of an emulsifier—diluted with water to the desired concentration. In general, an aqueous spray liquor was prepared using 0.1% of the additive Renex-36.
(§2) The test plants are grown under controlled conditions (temperature, light, atmospheric humidity) in a greenhouse. The test plants are sprayed when they have reached a height of 5-15 cm. The concentration of the spray liquor is chosen such that the particular amounts of active compound desired are applied in 500 l of water/ha.
(§3) After spraying, the pots with the test plants are kept in a greenhouse chamber under controlled conditions (temperature, light, atmospheric humidity) until the test has ended. About three weeks after the application, the degree of damage to the crop plants is rated in % damage in comparison to the development of the untreated control.
(§4) The figures denote: • 0% no damage (like untreated control) • 100% total destruction/damage

Winter wheat = test: as above; assay type: in vivo; settings: rated about three weeks after application
Protocol: as §1, §2, §3, §4

[1] = application rate 125 g of ai/ha
[2] = application rate 250 g of ai/ha
[3] = safener alone, application rate 50 g of ai/ha

Row | SMILES | Winter barley observed (% damage) (Winter barley; application rate 60 g of ai/ha) [%] | Winter barley observed (% damage) (Winter barley; [1]) [%] | Winter barley observed (% damage) (Winter barley; [2]) [%] | Winter wheat observed (% damage) (Winter wheat; [1]) [%] | Winter wheat observed (% damage) (Winter wheat; [2]) [%] | Winter barley observed (% damage) (Winter barley; [3]) [%] | Winter wheat observed (% damage) (Winter wheat; [3]) [%] | also measured
1 | CCCC1(C)NC(=O)C(c2c(C)cc(C)cc2C)=C1O (stereo not drawn) [Example I-1-a-1] | – | – | – | – | – | – | – | Winter barley observed (% damage) (Winter barley; application rate 110 g of ai/ha): 10%; Winter barley observed (% damage) (Winter barley; application rate 220 g of ai/ha): 25%; Winter barley observed (% damage) (Winter barley; application rate 440 g of ai/ha): 70%
2 | CCc1cc(Br)cc(C)c1C1=C(O)C2(CCC(C)CC2)NC1=O (stereo not drawn) [Example I-1-a-2] | 5 | 20 | 65 | 10 | 40 | – | – | –
3 | CCc1cc(Br)cc(CC)c1C1=C(O)C(C)(C(C)C)NC1=O (stereo not drawn) [Example I-1-a-3] | – | – | 40 | 10 | 15 | – | – | –
4 | Cc1cc(-c2ccc(Cl)cc2)cc(C)c1C1=C(O)C2(CCOCC2)NC1=O [Example I-1-a-4] | 5 | 35 | 35 | – | – | – | – | –
5 | CCOC(=O)C1=NN(c2ccc(Cl)cc2Cl)C(C)(C(=O)OCC)C1 (stereo not drawn) [Mefenpyr-diethyl, diethyl 1-(2,4-dichloro-phenyl)-4,5-dihydro-5-methyl-1H-pyrazole-3,5-dicarboxylate, reference compound] | – | – | – | – | – | 0 | 0 | –
6 | CCCCCC(C)OC(=O)COc1ccc(Cl)c2cccnc12 (stereo not drawn) [cloquintocet-mexyl, 1-methyl-hexyl 5-chloro-quinolin-8-oxy-acetate, reference compound] | – | – | – | – | – | 0 | 0 | –
